{"source": "patent US8138148B2", "about": "“GDNF derived peptides” (Copenhagen University, priority 2005, dated 2012)", "key": {"[1]": {"system": "primary hippocampal neurons", "assay": "Neurite outgrowth assay, monocultures of primary hippocampal neurons", "format": "cell-based, rat", "details": "monoculture, stimulated 24 hours; GDNF 1-100 ng/ml, peptides 0.1-27 μg/ml; versus medium alone", "method": "Two different versions of the neurite outgrowth assay were used in this study, monocultures and co-cultures.\nIn monocultures, neurons are grown directly on plastic and the only neuritogenic stimulus is the one presented by the added substance. In co-cultures, neurons are grown on top of a confluent monolayer of fibroblasts expressing NCAM-140 (LBN110) or NCAM-negative control fibroblasts (LVN212). NCAM on the neurons interact with NCAM on LBN110 cells thereby stimulating neurite outgrowth from the neurons. This system thus permits the study of NCAM-NCAM interactions and interactions between NCAM and other molecules.\nFor all experiments cells were grown in neurobasal medium with supplements as described above in a final volume of 300 μl/well in 8-well LabTek® Permanox Chamber slides or 500 μl/well in 4-well LabTek® Permanox Chamber slides.\nFor monocultures, primary hippocampal neurons were seeded in 8-well LabTek® Permanox Chamber slides at a density of 10,000 cells/well.\nTo evaluate the effect peptides on neurite outgrowth, GDNF and the peptides, G1, G2, G3, A1, A2, A3, N1, N2 and N3 were diluted to the appropriate concentrations and added to the neurons approximately 10 minutes after seeding. Medium alone was added to controls, and cells were incubated for 24 hours.\nNeurite outgrowth experiments were terminated after the stated time by fixating the cells. To visualize neurons and their neurites, immunostaining of GAP-43 was performed. This staining is specific for neurons. Transfected cells and their neurites should be visible without immunostaining due to the fluorescence emitted by GFP. […] GFP is a cytoplasmic protein, and since thin neurites only contain a small volume of cytoplasm, GFP is only found in small amounts in most neurites. Therefore, a double-staining protocol, where cells were immunostained against GFP and GAP-43, was adopted. This protocol allowed the identification of transfected cells on the basis of GFP-staining in combination with visualization of neurites based on GAP-43-staining. […]"}, "hippocampal neurons": {"system": "hippocampal neurons", "assay": "Neurite outgrowth of hippocampal neurons transfected with dominant negative FGFR", "format": "cell-based, rat", "details": "10 ng/ml GDNF or 3 μg/ml GDNFp1, 18 hours, dnFGFR vs empty vector", "method": "For cocultures, L-cells were seeded in 8-well LabTek® Permanox Chamber slides at a density of 100.000 cells/well, except for transfection experiments where cells were seeded in 4-well LabTek® Permanox Chamber slides at a density of 200.000 cells/well. L-cells were grown for 24 hours in DMEM supplemented with 10% (v/v) FCS, 1% (v/v) glutamax, 100 U/ml penicillin, 100 μg/ml streptomycin, 2.5 μg/ml fungizone, and 567 μg/ml neomycin (G418), followed by washing twice in neurobasal medium with supplements before primary hippocampal neurons were seeded at a density of 7.000 cells/well in 8-well slides or 20.000 cells/well in 4-well slides.\nAdditionally, neurons were transiently transfected with a dominant negative version of the FGFR (dnFGFR), As an alternative to the use of a pharmacological FGFR inhibitor, The dnFGFR plasmid encodes an FGFR that lacks the kinase domain. This mutant receptor inhibits the function of wild type FGFR by engaging in dimers that lack kinase activity. Transfection with an empty vector served as control. Transfection was also done with wtFGFR in order to assess the effect of overexpressing the FGFR.\nTransfections were performed with a Nucleofector™ device and a Rat Neuron Nucleofector™ kit (Amaxa Inc., Gaithersburg, Md., USA). This transfection method is based on electroporation in combination with a Nucleofector™ solution containing lipophilic agents. These agents form liposomes containing the plasmid DNA, which then enter the cells during electroporation. The method allows transfection of undividing cells such as neurons. 3 μg of the plasmid of interest was mixed with the Nucleofector™ solution and primary hippocampal neurons were resuspended in the mixture, electroporated in the Nucleofector™ device, and transferred to neurobasal medium with supplements and 5% (v/v) FCS. Cells were then incubated for 2 hours after which they were resuspended in medium without serum, counted, seeded and incubated for 6 hours before GDNF or GDNFp1 was added. Medium alone was added to control and cells were incubated for 18 hours.\nAll transient transfections in this study included co-transfection with a plasmid encoding EGFP, which allows the identification of transfected cells. To ensure that all EGFP-expressing cells also are transfected with the plasmid of interest, a ratio of […] between the EGFP-encoding plasmid and the plasmid of interest was used (i.e. 0.5 μg EGFP-encoding plasmid was used for each transfection).\nNeurite outgrowth experiments were terminated after the stated time by fixating the cells. To visualize neurons and their neurites, immunostaining of GAP-43 was performed. This staining is specific for neurons. Transfected cells and their neurites should be visible without immunostaining due to the fluorescence emitted by GFP. […]"}}, "data": [{"sequence": "ETTYDKILKNLSRNR (listed as Homo sapiens) [G2, GDNF fragment]", "values": [{"measurement": "neurite outgrowth, overall effect of treatment (one-way ANOVA)", "setting": "[1]", "value": "overall statistical significant effect"}, {"measurement": "neurite outgrowth mediated by the substance after transfection with dominant negative FGFR, on NCAM-expressing fibroblasts", "setting": "hippocampal neurons; NCAM-expressing fibroblasts", "value": "decreases neurite outgrowth"}, {"measurement": "neurite outgrowth mediated by the substance after transfection with dominant negative FGFR, on control fibroblasts", "setting": "hippocampal neurons; control fibroblasts", "value": "decreases neurite outgrowth"}]}]}
